The numbers were not newly measured in patent US20230180818A1, “AEROSOLISED FORMULATION” (NICOVENTURES TRADING LIMITED, priority 2018, published 2023), which cites them from elsewhere.

The conditions of this data set: compared to base cyclodextrins such as β-cyclodextrin.

With 2-hydroxy-propyl-β-cyclodextrin, the solubility in water result is “increased solubility in water”.
